pIC50: −log10 of the molar value. “And” between values parts separate entries of the source, which are not always exact repeats. Identical values can stand only once.
Tested on: 328373-195-R-J1-PDC complex spheroids, viability % test/control
Assay: Anticancer human tumor 328373-195-R-J1-PDC patient-derived head and neck squamous carcinoma cell line growth inhibition [CLK]
Conditions: for viability, T/C: stronger effect = lower value
Description: A high-throughput screen of multi-cell type tumor spheroids was designed to identify active combinations of […] and targeted small molecules. Complex spheroids include a stromal component modeled by human endothelial cells (HUVEC) and fibroblasts modeled by human mesenchymal stem cells (MSCs). The concentration ranges selected for each drug and investigational agent were based upon clinically achievable concentrations if the clinical Cmax of the agent was known.
Compounds. The drugs and investigational agents: cirtuvivint (SM08502; NSC835563), CC-671 (NSC850746), vemurafenib (NSC761431), tapotoclax (NSC804041), sotorasib (NSC818433), adagrasib (NSC831453), MRTX-1133 (NSC836407), BAY2416964 (NSC825713), copanlisib (NSC816437), inavolisib (NSC800729), abemaciclib (NSC768073), osimertinib (NSC779217), entinostat (NSC756642), eltanexor (KPT-8602, NSC794443), venetoclax (NSC766270), ceralasertib (NSC777638), bortezomib (NSC756655), olaparib (NSC753686), talazoparib (NSC767125), alisertib (NSC759677), peposertib (NSC802822), gemcitabine (NSC613327), 5-fluorouracil (NSC19893), SN-38 (NSC673596), oxaliplatin (NSC266046), paclitaxel (NSC125973), and doxorubicin (NSC123127), were obtained from the National Cancer Institute (NCI) Developmental Therapeutics Program Chemical Repository. The FDA-approved anticancer drug set is available from the Developmental Therapeutics Program at https://dtp.cancer.gov/organization/dscb/obtaining/available plates.htm. […] The stock solutions were prepared in dimethyl sulfoxide (DMSO, Sigma-Aldrich, St. Louis, MO, cat. D2650), except for the platinum complexes which were prepared in saline (Quality Biological, Gaithersburg, MD, cat. 114-055-101), at 800-fold the tested concentration and stored at -70 degrees C prior to their use. All drugs and investigational agents were tested over a range starting from a high concentration at or near the clinical Cmax and decreasing in half-log increments. If the clinical Cmax for an agent had not been determined, the highest concentration tested was 10 microM.
Cell Culture. All cells were maintained in an incubator at 37 degrees C and 5% CO2 with 95% humidity. The PDC lines were cultured according to standard operating procedures established by the NCI PDMR. Briefly, all PDCs were thawed and cultured in Matrigel-coated flasks prepared with a working solution of 1X Ham's F-12 nutrient mix, without supplementation (Invitrogen, Waltham, MA, cat. 11765054), 100 U/mL penicillin-streptomycin (Invitrogen, cat. 15140122), and 2.5% Matrigel (Corning Inc., Corning, NY, cat. 354248) for the first three passages. The 947758-054-R-J2-PDC line was cultured in 6B/Colon 1A media, which includes advanced DMEM/F-12 (Thermo Fisher Scientific, cat. 12634028), 10 mM HEPES (Thermo Fisher Scientific, cat. 15630080), 1X GlutaMAX supplement (Thermo Fisher Scientific, cat. 35050061), 0.1 mg/mL primocin (InvivoGen, cat. ant-pm-2), 10% defined fetal bovine serum, heat inactivated (HyClone Laboratories Inc., cat. SH30070.03HI), 1.25 mM N-Acetyl-L-cysteine (Sigma-Aldrich, cat. A9165), 10 mM nicotinamide (Sigma-Aldrich, cat. N0636), 1X B-27 supplement (Thermo Fisher Scientific, cat. 17504044), 1X N-2 supplement (Thermo Fisher Scientific, cat. 17502048), and 10 microM Y-27632 dihydrochloride (Tocris Bioscience, cat. 1254). The 876862-298-R-J1-PDC was cultured in 6E media, which includes all 6B/Colon 1A media components plus 50% L-WRN conditioned media (ATCC, cat. CRL-3276), 50 ng/mL recombinant human EGF recombinant protein (hEGF; Thermo Fisher Scientific, cat. PHG0311), 10 ng/mL recombinant human fibroblast growth factor 10 (hGFG-10; PeproTech, cat. 100-26), 1 ng/mL recombinant human fibroblast growth factor 2 (hFGF-2; PeproTech, cat. 100-18B), and 1 µM prostaglandin E2 (PGE2; Tocris, cat. 2296). The 227483-062-R1-J1-PDC line was cultured in Panc media, containing all 6E components except hFGF-2, with the addition of 500 nM SB-431542 (Selleckchem, cat. S1067) and 10 nM gastrin (Tocris, cat. 3006). […]
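Also: spheroids exposed to the agents for 7 days.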

## Cn1ncnc1[C@H]1c2n[nH]c(=O)c3cc(F)cc(c23)N[C@@H]1c1ccc(F)cc1 + CN1CCN(c2cc(C(=O)Nc3cc4cc(-c5cnn(C)c5)ccc4cn3)ccn2)CC1
Curve of first compound, second compound 0.0316 µM
  pIC50: < 7.00
Curve of first compound, second compound 0.1 µM
  pIC50: < 7.00
Curve of first compound, second compound 0.316 µM
  pIC50: > 9.50
Curve of first compound, second compound 1 µM
  pIC50: > 9.50
Curve of first compound, second compound 3.16 µM
  pIC50: > 9.50
Curve of first compound, second compound 10 µM
  pIC50: > 9.50
Second compound 0.0316 µM, first compound 0.000316 µM
  viability, T/C: 93.5%
Second compound 0.0316 µM, first compound 0.001 µM
  viability, T/C: 84.3%
Second compound 0.0316 µM, first compound 0.00316 µM
  viability, T/C: 91.8%
Second compound 0.0316 µM, first compound 0.01 µM
  viability, T/C: 119%
Second compound 0.0316 µM, first compound 0.0316 µM
  viability, T/C: 95.1%
Second compound 0.0316 µM, first compound 0.1 µM
  viability, T/C: 82.2%
Second compound 0.1 µM, first compound 0.000316 µM
  viability, T/C: 80.5%
Second compound 0.1 µM, first compound 0.001 µM
  viability, T/C: 78.7%
Second compound 0.1 µM, first compound 0.00316 µM
  viability, T/C: 83.9%
Second compound 0.1 µM, first compound 0.01 µM
  viability, T/C: 86.8%
Second compound 0.1 µM, first compound 0.0316 µM
  viability, T/C: 85.8%
Second compound 0.1 µM, first compound 0.1 µM
  viability, T/C: 59.7%
Second compound 0.316 µM, first compound 0.000316 µM
  viability, T/C: 29.9%
Second compound 0.316 µM, first compound 0.001 µM
  viability, T/C: 33.9%
Second compound 0.316 µM, first compound 0.00316 µM
  viability, T/C: 28.4%
Second compound 0.316 µM, first compound 0.01 µM
  viability, T/C: 27%
Second compound 0.316 µM, first compound 0.0316 µM
  viability, T/C: 21.4%
Second compound 0.316 µM, first compound 0.1 µM
  viability, T/C: 18.4%
Second compound 1 µM, first compound 0.000316 µM
  viability, T/C: 0.11%
Second compound 1 µM, first compound 0.001 µM
  viability, T/C: 2%
Second compound 1 µM, first compound 0.00316 µM
  viability, T/C: 2.06%
Second compound 1 µM, first compound 0.01 µM
  viability, T/C: 0.15%
Second compound 1 µM, first compound 0.0316 µM
  viability, T/C: 1.32%
Second compound 1 µM, first compound 0.1 µM
  viability, T/C: 2.11%
Second compound 3.16 µM, first compound 0.000316 µM
  viability, T/C: 0.08%
Second compound 3.16 µM, first compound 0.001 µM
  viability, T/C: 0.77%
Second compound 3.16 µM, first compound 0.00316 µM
  viability, T/C: 4.18%
Second compound 3.16 µM, first compound 0.01 µM
  viability, T/C: 0.08%
Second compound 3.16 µM, first compound 0.0316 µM
  viability, T/C: 1.73%
Second compound 3.16 µM, first compound 0.1 µM
  viability, T/C: 1.99%
Second compound 10 µM, first compound 0.000316 µM
  viability, T/C: 0.17%
Second compound 10 µM, first compound 0.001 µM
  viability, T/C: 0.14%
Second compound 10 µM, first compound 0.00316 µM
  viability, T/C: 1.47%
Second compound 10 µM, first compound 0.01 µM
  viability, T/C: 0.12%
Second compound 10 µM, first compound 0.0316 µM
  viability, T/C: 2.53%
Second compound 10 µM, first compound 0.1 µM
  viability, T/C: 1.76%

## CC(CO)NC(=O)c1cc(-c2ccc(Cl)cc2)nn(-c2cnn(C)c2)c1=O (centres undefined)
Compound 0.0316 µM
  viability, T/C: 101% and 99.6%
Compound 0.1 µM
  viability, T/C: 105% and 97%
Compound 0.316 µM
  viability, T/C: 105% and 113%
Compound 1 µM
  viability, T/C: 112% and 109%
Compound 3.16 µM
  viability, T/C: 112% and 119%
Compound 10 µM
  viability, T/C: 88.7% and 91.8%
Curve of compound
  pIC50: < 5.00

Source: PubChem BioAssay AID2060620 (Molecular Pharmacology Branch, DTP, NCI, 2025)
